Article PMC8836147, “Design, Synthesis and Antifungal/Nematicidal Activity of Novel 1,2,4-Oxadiazole Derivatives Containing Amide Fragments” (International Journal of Molecular Sciences, 2022)
≈ marks a conversion by molar mass, not a printed value.

Experiments:
[1] = system: A. besseyi; experiment: microbe, parasite or virus in culture; settings: Aphelenchoides besseyi, 48 h, read-out: Corrected Mortality Rate ± SD (%) A. besseyi
From the text: (§1) M. incognita (parasitic on tomato plants), A. besseyi (potato dextrose agar–Botrytis cinerea breeding), B. xylophilus (potato dextrose agar–Botrytis cinerea breeding), and C. elegans (nematode growth medium–inactivated Escherichia coli OP50 cultivation) were provided by the Fine Chemical Research and Development Center of Guizhou University (Guizhou, China). The methodology used for the nematocidal bioassays of these target compounds was modified in the light of the conventional methods reported in the previously published literature. The nematicidal activity of the target compounds against four nematodes was determined using 48-well biochemical culture dishes. All of the compounds were dissolved with 100 μL DMF and were diluted with 1% Tween-80 to obtain 200 and 50 μg/mL concentrations for the bioassays. Fosthiazate and tioxazafen were used as positive controls at the same concentrations, and a negative control group was prepared without compounds using the same methodology. An amount of 10 µL of nematode suspension (about 50 nematodes) and 300 µL of the trial solution were added to corresponding hole, and each treatment was set to three repetitions. All of the 48-well plates were placed in a biochemical incubator at 27 °C for dark light culture. […] Corrected mortality (%) = [(mortality of treatment % − mortality of negative control %)/(1 − mortality of negative control %)] × 100%(3)

[2] = system: M. incognita; experiment: microbe, parasite or virus in culture; settings: Meloidogyne incognita, 48 h, read-out: Corrected Mortality Rate ± SD (%) M. incognita
From the text: as §1

[3] = system: C. elegans; experiment: microbe, parasite or virus in culture; settings: 48 h; for mortality at 50 µg/mL / mortality at 200 µg/mL: Caenorhabditis elegans, read-out: Corrected Mortality Rate ± SD (%) C. elegans
From the text: as §1

[4] = system: B. xylophilus; experiment: microbe, parasite or virus in culture; settings: Bursaphelenchus xylophilus, 48 h, read-out: Corrected Mortality Rate ± SD (%) B. xylophilus
From the text: as §1

[5] = MTT cytotoxicity assay; type: cell-based; settings: human, L-02 normal liver cells, L-02 cells
Procedure: The human liver L-02 cells were obtained from the biology laboratory in Key Laboratory of Chemistry for Natural Products of Guizhou Province and Chinese Academy of Sciences (Guiyang, China). The cells were grown in Dulbecco’s Modified Eagle’s Medium (supplemented with 10% (v/v) FBS, 100 U/mL penicillin, and 100 μg/mL streptomycin) at 37 °C in a CO2 incubator (5% CO2 and 95% air, 95% humidity). The effect of some compounds on cell viability was determined with the MTT assay according to the previously published literature. A total of 5000 cells were inoculated in a 96-well plate and three wells of each concentration of test compound were used. A total of 24 h after inoculation, the cells had grown to ~60% confluency, and different concentrations of compounds were added, and then the cells were cultured for 48 h. DMSO was used as the control. A total of 20 μL of MTT solution was added to each well and incubated at 37 °C for 4 h. Formazan crystals were dissolved in 150 μL of DMSO and quantified using a microplate reader (Thermo Scientific, Vario Skan Flash, Shanghai Bio-Gene Technology Co., LTD, Shanghai, China) at 490 nm. The cytotoxicity was calculated according to following formula:Cytotoxicity (%) = [(OCK − OT)/OCK] × 100%(2) where OCK represents the optical density (OD) value of the blank control group, and OT represents the OD value of experimental group.

[6] = system: S. sclerotiorum; experiment: In vitro mycelium growth inhibition test; type: cell-based; settings: Sclerotinia sclerotiorum, mycelial growth, mean ± SD of three replicates; for inhibition at 50 µg/mL: 50 μg/mL, read-out: Inhibition Rate (%) S. sclerotiorum; for EC50: read-out: EC50 against S. sclerotiorum
Procedure: (§2) B. cinerea and S. scleotiorum were kindly provided by the Department of Pesticides, College of Plant Protection, Nanjing Agricultural University (Nanjing, China). All compounds were evaluated for mycelium growth inhibition tests against the two plant pathogenic fungi mentioned in previous reports. These two fungi were inoculated on potato dextrose agar (PDA) plates and were grown in biochemical incubators at 25 ± 1 °C for 2–4 days. The new mycelium was used to determine the antifungal activity. The target compounds were dissolved in 100 µL DMF, and they were then added into the PDA media to make the concentration 50 µg/mL. Mycelia dishes of about 5 mm in diameter were cut from the culture medium. Mycelium were picked up with a sterile inoculation needle, and the sample was inoculated in the middle of a PDA plate in a sterile environment. Afterwards, a preliminary screening of fungal activity was performed. […] Each test was carried out three times. The radial growth of the fungal colonies was gauged and recorded when the diameters of the blank control mycelia reached 5.0–5.5 cm. […] The final data were analyzed using SPSS v.25.0 (IBM, New York, NY, USA). The following formula was used to calculate the fungi inhibition rate. Inhibition rate (%) = [(Mycelium diameter of negative control − Mycelium diameter of treatment)/(Mycelium diameter of negative control − 0.5)] × 100%(1)

[7] = system: B. cinerea; experiment: In vitro mycelium growth inhibition test; type: cell-based; settings: Botrytis cinerea; 50 μg/mL; mycelial growth; mean ± SD of three replicates; read-out: Inhibition Rate (%) B. cinerea
Procedure: as §2

SMILES | mortality at 50 µg/mL [1] [%] | mortality at 200 µg/mL [1] [%] | mortality at 50 µg/mL [2] [%] | mortality at 200 µg/mL [2] [%] | mortality at 50 µg/mL [3] [%] | mortality at 200 µg/mL [3] [%] | mortality at 50 µg/mL [4] [%] | mortality at 200 µg/mL [4] [%] | cytotoxicity at 48 h, 50 μg/mL [5] [%] | cytotoxicity at 48 h, 100 μg/mL [5] [%] | cytotoxicity at 48 h, 200 μg/mL [5] [%] | inhibition at 50 µg/mL [6] [%] | EC50 [6] [µg/mL] | inhibition at 50 µg/mL [7] [%] | Corrected Mortality Rate ± SD (%) C. elegans ([3]; 50 µg/mL) [%] | Corrected Mortality Rate ± SD (%) C. elegans ([3]; 200 µg/mL) [%]
O=C(NCCc1ccccn1)c1nc(-c2ccccc2)no1 [Compound F1, 3-Phenyl-N-(2-(pyridin-2-yl)ethyl)-1,2,4-oxadiazole-5-carboxamide] | 0 | 6.9 ± 1.2 | 6.9 ± 2.1 | 43.5 ± 2.3 | 51.3 ± 2.2 | 88.7 ± 1.3 | 0 | 6.1 ± 1.1 | 4.7 ± 4.9 | 10.9 ± 5.9 | 15.4 ± 4.4 | 73.2 ± 0.1 | 20.8 ± 0.8 (≈ 70.7 µM) | 24.2 ± 0.2 | – | –
O=C(NCc1ccc(F)cc1F)c1nc(-c2ccccc2)no1 [Compound F3, N -(2,4-difluorobenzyl)-3-phenyl-1,2,4-oxadiazole-5-carboxamide] | 0 | 20.1 ± 1.3 | 13.9 ± 2.1 | 54.9 ± 3.3 | 100 | 100 | 0 | 26.1 ± 1.2 | 7.5 ± 3.8 | 17 ± 1.4 | 50.8 ± 3.9 | 84.8 ± 0.6 | 5.4 ± 0.3 (≈ 17.1 µM) | 56.8 ± 0.1 | 100.0 | 100.0
Cc1nc(C(F)(F)F)c(C(=O)Nc2c(Br)cc(OC(F)(F)F)cc2Br)s1 [Thifluzamide, thifluzamide, reference compound] | – | – | – | – | – | – | – | – | 33.3 ± 1.8 | 33.7 ± 0.4 | 33.9 ± 1.5 | 86.7 ± 0.3 | 4.3 ± 1.7 (≈ 8.14 µM) | 80.3 ± 0.2 | – | –
O=C(NCCc1ncc(C(F)(F)F)cc1Cl)c1nc(-c2cccs2)no1 [Compound F14] | 0 | 27 ± 0.8 | 0 | 12.3 ± 2.3 | 70 ± 0.6 | 100 | 0 | 6.9 ± 1.8 | 18.8 ± 2.5 | 21.4 ± 5 | 39.1 ± 8.4 | 65.2 ± 0.2 | 15.3 ± 1.3 (≈ 38 µM) | 36.4 ± 0.2 | – | –
O=C(NCCc1ccccn1)c1nc(-c2ccc(Cl)cc2)no1 [Compound F9, 3-(4-chlorophenyl)-N-(2-(pyridin-2-yl)ethyl)-1,2,4-oxadiazole-5-carboxamide] | 0 | 12.8 ± 2.3 | 9.8 ± 2.5 | 56.3 ± 2.4 | 62.1 ± 2.2 | 87.6 ± 1.1 | 0 | 14.5 ± 2.5 | -2.5 ± 0.2 | 7.1 ± 6.5 | 31.5 ± 8.7 | 61.1 ± 0.7 | 18.7 ± 0.4 (≈ 56.9 µM) | 26.7 ± 0.5 | – | –
O=C(NCCc1ccccn1)c1nc(-c2ncc(C(F)(F)F)cc2Cl)no1 [Compound F21] | 0 | 13 ± 0.5 | 0 | 23.5 ± 2.4 | 32.5 ± 2 | 76.8 ± 0.9 | 0 | 7.1 ± 1.9 | – | – | – | 35.1 ± 0.1 | – | 38.8 ± 0.7 | – | –
O=C(NCCc1ncc(C(F)(F)F)cc1Cl)c1nc(-c2ccc(Cl)cc2)no1 [Compound F10, N-(2-(3-chloro-5-(trifluoromethyl)pyridin-2-yl)ethyl)-3-(4-chlorophenyl)-1,2,4-oxadiazole-5-carboxamide] | 0 | 23.6 ± 2.2 | 0 | 15.8 ± 3.5 | 69.3 ± 1.8 | 100 | 0 | 12.1 ± 1.7 | – | – | – | 48.6 ± 1.2 | – | 24.2 ± 1.7 | – | –
Cc1ccc(-c2noc(C(=O)NCCc3ncc(C(F)(F)F)cc3Cl)n2)cc1 [Compound F6, N-(2-(3-chloro-5-(trifluoromethyl)pyridin-2-yl)ethyl)-3-(p-tolyl)-1,2,4-oxadiazole-5-carboxamide] | 0 | 29.4 ± 2.3 | 7.9 ± 2.2 | 44.6 ± 3.8 | 100 | 100 | 0 | 11.6 ± 2.1 | – | – | – | 56 ± 1.4 | – | 22.9 ± 1.1 | 100.0 | 100.0
